The target of test [1] is T1, PKM2 (Homo sapiens, UniProt P14618). Briefly: Recombinant PKM2 activity with P-M2tide / NP-M2tide, LDH-coupled assay. Type of test: biochemical. Set-up: His6 (N); made in house; host or cells: E. coli BL21(DE3)pLysS. Particulars: dose-dependent; FIG. 6a. The text has this: Multiple phosphoTyr peptides comprising in vivo phosphorylation sites previously identified on metabolic proteins (Villen et al., Proc. Natl. Acad. Sci. USA 104: 1488-93, 2007) were synthesized. Several of these phosphoTyr peptides, as well as multiple phosphoTyr peptides designed after known tyrosine kinase motifs, were also shown to inhibit PKM2 activity (FIG. 6b).
Target sequence in this assay (P14618 whole entry): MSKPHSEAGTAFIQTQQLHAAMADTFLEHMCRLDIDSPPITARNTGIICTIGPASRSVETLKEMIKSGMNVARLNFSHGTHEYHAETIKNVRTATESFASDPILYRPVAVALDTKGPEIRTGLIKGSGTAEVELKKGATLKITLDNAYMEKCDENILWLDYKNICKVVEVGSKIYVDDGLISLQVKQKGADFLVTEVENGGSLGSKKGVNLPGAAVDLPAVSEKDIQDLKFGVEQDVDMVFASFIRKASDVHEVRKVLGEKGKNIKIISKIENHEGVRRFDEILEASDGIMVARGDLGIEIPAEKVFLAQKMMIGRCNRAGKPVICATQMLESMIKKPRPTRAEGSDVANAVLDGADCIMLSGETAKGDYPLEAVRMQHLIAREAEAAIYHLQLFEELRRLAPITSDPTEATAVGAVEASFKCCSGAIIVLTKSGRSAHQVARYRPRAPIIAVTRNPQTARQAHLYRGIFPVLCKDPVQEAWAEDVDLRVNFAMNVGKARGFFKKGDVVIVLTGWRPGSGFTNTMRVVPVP

In test [2] the target is T1, PKM2. Briefly: Release of 14C-FBP from FBP-loaded recombinant PKM2 after peptide exposure and dialysis. Type of test: binding. Set-up: His6 (N); made in house; host or cells: E. coli BL21(DE3)pLysS. The conditions noted are these: 14C counts retained after dialysis; FIG. 4e. The protocol:
To examine the effect of phosphoTyr peptide binding on FBP-bound PKM2, a peptide-binding motif for PKM2 was obtained using traditional peptide library screening. Both the phosphorylated (P-M2tide) and unphosphorylated (NP-M2tide) versions of the optimal peptide were synthesized: P-M2tide (GGAVDDDpYAQFANGG SEQ ID NO:1) and NP-M2tide (GGAVDDDYAQFANGG SEQ ID NO:2) (FIG. 5). The FBP-loaded recombinant PKM2 was incubated with P-M2tide or NP-M2tide, the unbound FBP and peptide were dialyzed away, and the counts retained on the PKM2 were measured.
Target sequence in this assay (P14618 whole entry): as above

A further test deals with M1 and M2 rescue cells. Briefly: Proliferation of M1 and M2 rescue cells with oligomycin. It counts as cell-based, human. The conditions noted are these: subsaturating oligomycin (125 nM); M1 vs M2 rescue cells. As for the experimental part: To examine whether PKM2 expression enhances tumor cell growth under lowered oxygen and glucose conditions, proliferation rates of the M1 and M2 rescue cells (M2 knockdown cells expressing mM1 or mM2) were measured in physiologic glucose levels and hypoxic oxygen. […] The percent decrease in oxygen consumption following addition of subsaturating amounts of oligomycin, a specific inhibitor of mitochondrial ATP synthase, was the same in both the M1 and M2 cells.
5×10^4 cells were seeded in triplicate in 6-well plates and accurate cell counts were obtained every 24 hours using a Coulter particle analyzer for a 3-5 day period. Time zero was taken 16 hours post-seeding. Cells grown in low oxygen were incubated in a sealed hypoxia chamber set to 0.5% oxygen. Cells grown in the presence of oligomycin were treated with 125 nM oligomycin at time zero.

Another test relates to pyruvate kinase. The conditions noted are these: pervanadate stimulation.
A further test deals with T2, Flag-tagged PKM2 (Mus musculus, UniProt P52480).
T2 construct: expressed in transfected cells
T2 sequence (P52480 whole entry): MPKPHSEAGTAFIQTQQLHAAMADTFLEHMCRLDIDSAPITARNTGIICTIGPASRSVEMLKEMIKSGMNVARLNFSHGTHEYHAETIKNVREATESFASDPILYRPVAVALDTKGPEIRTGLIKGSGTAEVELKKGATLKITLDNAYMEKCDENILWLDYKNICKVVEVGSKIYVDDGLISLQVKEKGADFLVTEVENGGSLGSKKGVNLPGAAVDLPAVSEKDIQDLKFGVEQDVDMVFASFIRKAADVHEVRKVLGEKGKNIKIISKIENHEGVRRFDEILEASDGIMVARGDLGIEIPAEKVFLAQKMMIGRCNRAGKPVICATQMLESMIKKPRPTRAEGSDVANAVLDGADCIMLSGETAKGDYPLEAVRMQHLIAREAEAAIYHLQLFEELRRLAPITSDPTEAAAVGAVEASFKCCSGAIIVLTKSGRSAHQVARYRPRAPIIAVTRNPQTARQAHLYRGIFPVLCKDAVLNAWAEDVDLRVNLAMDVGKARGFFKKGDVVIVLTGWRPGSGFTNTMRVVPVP
Briefly: 3H bound to immunoprecipitated Flag-tagged PKM2 in cells cultured with 3H-glucose. Type of test: cell-based. The conditions noted are these: 15-minute treatment with pervanadate. As for the experimental part:
Next, the ability of phosphoTyr protein binding to catalyze the release of FBP from PKM2 in vivo was tested. To address this, cells were cultured overnight with ^3H-glucose that can be metabolized to ^3H-FBP. Flag-tagged PKM2 was immunoprecipitated and the amount of ^3H bound to PKM2 with and without pervanadate-treatment was determined by scintillation counting.

Test [3] has as its system PKM2-expressing cells. Briefly: Incorporation of metabolites from 14C-glucose into lipids. It counts as cell-based. The text has this: (§1) Consistent with this model, a 25% increase in the incorporation of metabolites from ^14C-glucose into lipids upon pervanadate-treatment of PKM2-expressing cells was observed. […] A similar increase in the incorporation of ^14C-glucose metabolites into lipids was observed upon pervanadate stimulation of 293 cells.

Test [4] has as its system PKM2-expressing cells. Briefly: Cellular oxygen consumption after acute pervanadate stimulation. Type of test: cell-based. As for the experimental part: as §1
Cellular oxygen consumption rates were measured using a water-jacketed (37° C.) anaerobic chamber fitted with a polarographic oxygen electrode as described previously (Vander Heiden et al, Mol Cell Biol 21: 5899-912, 2001). The electrode was calibrated with 150 mM NaCl equilibrated to room air at 37° C. (corresponding to 199 nmol O2/ml).

Test [5] concerns the target T1, PKM2. Briefly: PKM2 inhibition assay, LDH-coupled, FBP added in excess. It counts as biochemical. Particulars: read-out: Inhibition of PKM2 Activity. As for the experimental part: For the inhibition assays, a candidate compound (2 μl 100×) was added into a well. In a control well, 2 μl of DMSO was added in place of the candidate compound. […] The mixture incubated at room temperature for 30 minutes. Immediately prior to measurement readings, 10 μl PEP (0.5 mM) and 2 μl FBP/H2O (0.5 μM) were added to each well. The FBP was added in excess.
Target sequence in this assay (P14618 whole entry): as the sequence (P14618 whole entry) above

In the next test the target is T3, recombinant PKM1 (Homo sapiens, UniProt P14618).
T3 construct: made in house
T3 sequence (P14618 1-531 isoform P14618-2, species assumed): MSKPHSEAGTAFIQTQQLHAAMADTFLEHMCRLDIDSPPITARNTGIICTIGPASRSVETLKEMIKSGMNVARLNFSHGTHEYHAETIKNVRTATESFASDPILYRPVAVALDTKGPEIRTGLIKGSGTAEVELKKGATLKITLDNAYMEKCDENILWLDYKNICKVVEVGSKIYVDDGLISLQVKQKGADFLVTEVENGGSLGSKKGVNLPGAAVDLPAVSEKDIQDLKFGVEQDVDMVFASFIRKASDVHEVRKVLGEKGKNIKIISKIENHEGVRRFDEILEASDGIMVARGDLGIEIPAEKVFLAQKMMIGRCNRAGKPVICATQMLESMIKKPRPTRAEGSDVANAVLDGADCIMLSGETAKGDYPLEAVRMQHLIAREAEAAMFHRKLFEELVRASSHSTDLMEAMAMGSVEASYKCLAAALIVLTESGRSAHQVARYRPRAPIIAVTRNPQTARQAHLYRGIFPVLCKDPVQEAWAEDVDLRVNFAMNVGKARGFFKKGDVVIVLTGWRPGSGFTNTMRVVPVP
Briefly: 14C-FBP retention on protein after dialysis, scintillation counting. It counts as binding. Particulars: ~10 μM 14C-FBP, 1 μM protein. The protocol:
(§2) However, FBP concentrations following protein purification would be orders of magnitude lower than this value. […] The PKM1, PKM2, and no-protein control were incubated with ^14C-FBP for 30 minutes at room temperature and then […] dialyzed against >2 L of buffer using 10,000 MWCO dialysis cassettes (Pierce) for at least 7 hours. After dialysis, samples were recovered and the amount of ^14C-FBP retained in each dialysis cassette was determined by scintillation counting. […] Upon further analysis, it was estimated that ^14C FBP is retained at roughly half a mole per mole on the PKM2 protein.

Test [6] has as its target T1, PKM2. Briefly: PKM2 activator assay, LDH-coupled, no FBP added. It counts as biochemical. The protocol: For the activator assays, a candidate compound (2 μl 100×) was added into a well. In a control well, 2 μl of DMSO was added in place of the candidate compound. […] The mixture incubated at room temperature for 5 minutes. Immediately prior to measurement readings, 10 μl PEP (0.5 mM) were added to each well. No FBP was added.
Target sequence in this assay (P14618 whole entry): as the sequence (P14618 whole entry) above

For test [7], the target named is T1, PKM2. Briefly: 14C-FBP retention on protein after dialysis, scintillation counting. It counts as binding. Set-up: His6 (N); made in house; host or cells: E. coli BL21(DE3)pLysS. The protocol: as §2
Target sequence in this assay (P14618 whole entry): as above
For test [8], the target named is T1, PKM2. Briefly: FBP competition for binding of recombinant PKM2 to phosphoTyr peptide affinity matrix. Set-up: His6 (N); made in house; host or cells: E. coli BL21(DE3)pLysS. Particulars: FIG. 2b. As for the experimental part: To determine if the FBP binding pocket on PKM2 coordinates phosphoTyr peptide binding, it was assessed whether FBP could compete for binding of PKM2 to a phosphoTyr peptide library column. Recombinant protein was synthesized by cloning human PKM2 into a pET28a vector (Novagen) at NdeI and BamHI sites and PKM2 was expressed as a N-terminal His6 tag fusion protein. The protein was expressed and purified with a standard protocol. Briefly, pET28a-PKM2 was transformed into BL2 I (DE3)pLysS cells and grown to an OD600 of 0.8 and induced with 0.5 mM IPTG for seven hours at room temperature. Cells were lysed using lysozyme in lysis buffer (50 mM Tris, pH 8.0, 10 mM MgCl2, 200 mM NaCl, 100 mM KCl, 20% glycerol, 10 mM imidazole, 1 mM PMSF). The cell lysate was cleared by centrifugation. PKM2 was purified by batch binding to Ni—NTA resin (Qiagen). The resin was then washed with lysis buffer containing 30 mM imidazole for 200 column volumes, and His6-tag-PKM2 was eluted with 250 mM imidazole. The protein was dialyzed overnight at 4° C. to remove the imidazole.
Recombinant PKM2 was incubated with increasing amounts of FBP and then flowed over the phosphoTyr peptide affinity matrix. 20 μM FBP was able to compete for binding of recombinant PKM2 to phosphoTyr peptides (FIG. 2b). […]
Target sequence in this assay (P14618 whole entry): as above

The target in test [9] is T1, PKM2. Particulars: Yamada and Noguchi 1999; cited from earlier work.
Target sequence in this assay (P14618 whole entry, species assumed): as the sequence (P14618 whole entry) above

Square brackets hold non-standard residues; d marks the D form. Ends that are not written are not given here. pY = N[C@@H](Cc1ccc(OP(=O)(O)O)cc1)C(=O)O

By inhibition is commonly meant the percentage by which the read-out fell short of the control.

Protocol for pyruvate kinase: Pyruvate kinase activity was measured according to published methods by a continuous assay coupled to lactate dehydrogenase (LDH). The change in absorbance at 340 nm due to oxidation of NADH was measured using a Victor^3 1420 Multilabel Counter spectrophotometer (PerkinElmer, Inc.). Kinetic assays for activity determinations contained recombinant PK (20-100 ng) or cell lysate (1-2 μg), Tris (pH 7.5) (50 mM), KCl (100 mM), MgCl2 (5 mM), ADP (0.6 mM), PEP (0.5 mM), NADH (180 pM), FBP (10 pM), and LDH (8 units).

With “GGAVDDDpYAQFANGG (GGAVDDD[pY]AQFANGG) [P-M2tide]”, in the test with PKM2 [1], the “inhibition of PKM2 activity” value is 20-30%. For the same molecule, the “FBP retained on / released from PKM2” value with PKM2 [2] is given as “release of the majority of the FBP”.

For `CC[C@H]1/C=C/C=C/C[C@@H](C)[C@H](O)[C@@](C)(O)C(=O)[C@@H](C)[C@H](O)[C@@H](C)C(=O)[C@@H](C)[C@H](O)[C@@H](C)/C=C/C(=O)O[C@@H]2[C@H](C)[C@H](CC1)O[C@]1(CC[C@H](C)[C@H](C[C@@H](C)O)O1)[C@H]2C` [oligomycin], the “effect on proliferation rate” value in the test with M1 and M2 rescue cells is on record as “affected the proliferation rate of the M1 cells significantly more than the M2 cells”.

pervanadate: the “decrease in total pyruvate kinase activity” value in the test with pyruvate kinase (293, A549 and H1299 cells, FIG. 6c) is on record as 20-30%. Besides, the “pyruvate kinase activity in M1-, M2-, M2KE-, L-expressing knockdown cells” value in the test with pyruvate kinase (H1299 knockdown/rescue cells, FIG. 6g) is “specific inhibition of pyruvate kinase activity only in the wild-type M2-expressing cells”. In addition, the “reduction in 3H that immunoprecipitated with PKM2” value at Flag-tagged PKM2 amounted to 30±13%. Also, the “increase in the incorporation of metabolites from 14C-glucose into lipids” value in the test with PKM2-expressing cells [3] (PKM2-expressing cells) is listed as 25%. Besides, the “14C incorporation into lipids” value in the test with PKM2-expressing cells [3] (cells expressing the KE point mutant of PKM2) was “no significant increase”. Further, the entries for the “decrease in oxygen consumption” value in the test on PKM2-expressing cells [4] (M2KE-expressing cells) and in the test with PKM2-expressing cells [4] (PKM2-expressing cells) were 15±4% and 36±1%, respectively.

GGAVDDDYAQFANGG [NP-M2tide]: in the test with PKM2 [2], the “FBP retained on / released from PKM2” value is reported as “significant amount of FBP remaining bound to PKM2”.

Consider `Cc1ccc(C)n1-c1ccc(O)c(C(=O)O)c1`, for which the inhibition at 10 µM on PKM2 [5] (0.01 mM compound) was determined as 21%. The inhibition at 100 µM on PKM2 [5] (0.1 mM compound) turned out to be 36%. At PKM2 [5] (1 mM compound), the inhibition at 1000 µM was found to be 55%.

As to `O=C(COP(=O)(O)O)[C@@H](O)[C@H](O)[C@H](O)COP(=O)(O)O` [FBP, fructose-1,6-bisphosphate], at recombinant PKM1, the “14C counts retained in PKM1 sample” value is reported as “same amount of ^14C counts as the no-protein control sample”. Further, the “% Activation of PKM2 by FBP” value is on record as 62% at PKM2 [6] (0.1 μM FBP), 89% at PKM2 [6] (0.3 μM FBP) and 114% on PKM2 [6] (1 μM FBP). In addition, the “14C FBP retained on the PKM2 protein” value on PKM2 [7] (estimated upon further analysis) was “roughly half”. The “more 14C counts than PKM1 sample and no-protein control” value on PKM2 [7] (~10 μM 14C-FBP, 1 μM protein, after dialysis) worked out at 52±5%. In addition, the “FBP concentration able to compete for binding of recombinant PKM2 to phosphoTyr peptides” value at PKM2 [8] was 20 µM. Further, the “Ka values for FBP binding to PKM2” value on PKM2 [9] is on record as “micromolar range”.

(Values after patent US8552050B2, “Activators of pyruvate kinase M2 and methods of treating disease” (Beth Israel Deaconess Medical Center, priority 2007, dated 2013).)
